Assay results as given in US10450300B2, “Wnt signaling pathway inhibitors and therapeutic applications thereof” (Suzhou Yunxuan Yiyao Keji Youxian Gongsi, priority 2015, dated 2019).

System: Wnt pathway
Test: Wnt pathway Super-top flash (STF) reporter gene assay (primary assay)
Type: cell-based
Conditions: HEK293 STF cells co-cultured 1:1 with L Wnt3A cells; 48 h incubation; inhibition of luminescence signaling
Protocol: The primary assay is based on Wnt pathway Super-top flash (STF) reporter gene assay:
HEK293 STF stable clones (HEK293 cells stably transfected with “Super-Top Flash” TCF-luciferase reporter plasmid) were kept in complete culture medium (DMEM with 4 mM L-Gln, 1.5 g/L sodium bicarbonate and 4.5 g/L glucose containing 6 μg/mL Blasticidin and 10% FBS). L Wnt3A cells (CRL-2647, ATCC) were kept in DMEM (Gibico) containing 10% FBS (Hyclone). HEK293 STF and L Wnt3A cells were harvested when 90% confluence and cell suspension was mixed with a fixed ratio of 1:1 (HEK293 STF: L Wnt3A). 100 μL/well of mixed cells suspension was added to the 96-well-plate with final cell concentration of 12,000 cells/well and then cultured for an additional 24 hours before adding compounds.
Compounds were diluted in DMSO in sequence and then diluted with DMEM medium. 20 μL medium containing compound was added to the cells according to the pre-setting dose. Cell plates were incubated at 37° C. for an additional 48 hours.
50 μL luciferase solution (Bright-Glo, Promega) was added to each well […] the 48 h incubation. The plates were incubated at room temperature for 5 min under gentle shaking. Luminescence signaling was measured with a plate reader (PHERAstar FS, BMG). The IC50 (potency) of compounds was calculated based on the inhibition of luminescence signaling.

| SMILES | IC50 [nM] |
| --- | --- |
| Cc1cc(-c2ccc(CNc3ncnc(N4CCc5ccccc5C4C)c3F)cc2)ccn1 (stereo not drawn) [Compound A-70] | 147 |
| N#Cc1cnc2cc(CNc3ncnc(-c4ccc5ncccc5c4)c3F)ccc2c1 [Compound A-71] | 0.29 |
| N#Cc1cnc2cc(CNc3ncnc(N4CCc5ncccc5C4)c3F)ccc2c1 [Compound A-72] | 0.64 |
| N#Cc1ccc2nc(CNc3ncnc(N4CCc5ncccc5C4)c3F)ccc2c1 [Compound A-74] | 1.6 |
| N#Cc1ccc2cc(CNc3ncnc(-c4ccc5ncccc5c4)c3F)cnc2c1 [Compound A-75] | 0.52 |
| N#Cc1ccc2cc(CNc3ncnc(N4CCc5ncccc5C4)c3F)cnc2c1 [Compound A-76] | 1.3 |
| Fc1c(NCc2ccc(-c3ccncn3)cc2)ncnc1-c1ccc2ncccc2c1 [Compound A-77] | 1.6 |
| Cc1cc(-c2ncc(CNc3ncnc(N4CCS(=O)(=O)CC4)c3F)cc2F)ccn1 [Compound A-79] | 416 |
| Cc1cc(-c2ncc(CNc3ncnc(N4CCNC(=O)C4)c3F)cc2F)ccn1 [Compound A-80] | 768 |
| Cc1cc(-c2ncc(CNc3ncnc(NCC4CC4)c3F)cc2F)ccn1 [Compound A-81] | 625 |
| Cc1cc(-c2ncc(CNc3ncnc(NCc4cccnc4)c3F)cc2F)ccn1 [Compound A-82] | 338 |
| Cn1nc(CNc2ncnc(-c3ccc4ncccc4c3)c2F)ccc1=O [Compound A-83] | 3000 |
| COc1cc(CNc2ncnc(-c3cc4cccnc4cn3)c2F)cnc1-c1ccnc(C)c1 [Compound A-84] | 0.26 |
| Cc1cc(-c2ncc(CNc3ncnc(-c4cc5cccnc5cn4)c3F)cc2F)ccn1 [Compound A-85, 5-fluoro-N-((3-fluoro-2′-methyl-2,4′-bipyridin-5-yl)methyl)-6-(1,7-naphthyridin-6-yl)pyrimidin-4-amine] | 0.14 |
| Cc1cc(-c2ncc(CNc3ncnc(-c4cc5cccnc5cn4)c3F)cc2C#N)ccn1 [Compound A-86] | 0.34 |
| Cc1cc(-c2ncc(CNc3ncnc(N4CCn5nccc5C4)c3F)cc2F)ccn1 [Compound A-87] | 0.51 |
| Cc1cc(-c2ncc(CNc3ncnc(N4Cc5cccnc5C4)c3F)cc2F)ccn1 [Compound A-88] | 7.7 |
| Cc1cc(-c2ncc(CNc3ncnc(N4CCOc5ncccc5C4)c3F)cc2F)ccn1 [Compound A-89] | 14 |
| Cc1cc(-c2ncc(CNc3ncnc(N4CCc5nccnc5C4)c3F)cc2F)ccn1 [Compound A-90] | 1.2 |
| Cc1cc(-c2ncc(CNc3ncnc(N4CCn5nnnc5C4)c3F)cc2C#N)ccn1 [Compound A-91] | 53 |
| Cc1cc(-c2ncc(CNc3ncnc(N4CCn5nncc5C4)c3F)cc2C#N)ccn1 [Compound A-92] | 10 |
| Cc1cc(-c2ncc(CNc3ncnc(N4CCn5nnnc5C4)c3F)cc2F)ccn1 [Compound A-93] | 40 |
| COc1cc(CNc2ncnc(N3CCn4nccc4C3)c2F)cnc1-c1ccnc(C)c1 [Compound A-94] | 0.8 |

| SMILES | IC50 [nM] |
| --- | --- |
| Cc1cc(-c2ncc(CNc3ncnc(N4CCn5nncc5C4)c3F)cc2F)ccn1 [Compound A-95] | 15 |
| Cc1cc(-c2ncc(CNc3nccc(-c4ccn5nccc5n4)c3F)cc2C#N)ccn1 [Compound A-96] | 0.2 |
| Cc1cc(-c2ccc(CNc3nccc(-c4ccc5ncccc5c4)c3F)cc2)ccn1 [Compound A-97] | 0.18 |
| Cc1cc(-c2ncc(CNc3nccc(-c4ccc5ncccc5c4)c3F)cc2F)ccn1 [Compound A-98] | 0.06 |
| Cc1cc(-c2ncc(CNc3nccc(-c4ccc5ncccc5c4)c3F)cc2C#N)ccn1 [Compound A-99] | 0.11 |
| Cc1cc(-c2ncc(CNc3nccc(-c4ccc5ncccc5c4)c3F)cn2)ccn1 [Compound A-100] | 0.27 |
| Cc1cc(-c2ccc(CNc3nccc(-c4ccc5ncccc5c4)c3F)cn2)ccn1 [Compound A-101] | 0.31 |
| Cc1cc(-c2ccc(C(C)Nc3nccc(-c4ccc5ncccc5c4)c3F)cc2)ccn1 (stereo not drawn) [Compound A-102] | 0.54 |
| Cc1cc(-c2ncc(CNc3nccc(-c4cc5cccnc5cn4)c3F)cc2F)ccn1 [Compound A-103] | 0.12 |
| Fc1c(-c2ccc3ncccc3c2)ccnc1NCc1ccc(-c2ccncc2)cc1 [Compound A-104] | 0.11 |
| Fc1c(-c2ccc3ncccc3c2)ccnc1NCc1ccc(-n2ccnc2)cc1 [Compound A-105] | 5.2 |
| COc1cc(CNc2nccc(-c3ccc4ncccc4c3)c2F)cnc1-c1ccnc(C)c1 [Compound A-106] | 0.24 |
| Cc1cn(-c2ccc(CNc3nccc(-c4ccc5ncccc5c4)c3F)cc2)cn1 [Compound A-107] | 16 |
| Cc1cc(-c2ncc(CNc3nccc(-c4ccc5ncccc5n4)c3F)cc2F)ccn1 [Compound A-108] | 1 |
| N#Cc1ccc2nc(CNc3nccc(-c4ccc5ncccc5c4)c3F)ccc2c1 [Compound A-109] | 10 |
| Cc1cc(-c2ncc(CNc3nccc(-c4ccc5nnccc5c4)c3F)cc2F)ccn1 [Compound A-110] | 1 |
| O=S1(=O)CCN(c2ccc(CNc3nccc(-c4ccc5ncccc5c4)c3F)cn2)CC1 [Compound A-111] | 10 |
| CS(=O)(=O)CCNc1ccc(CNc2nccc(-c3ccc4ncccc4c3)c2F)cn1 [Compound A-112] | 10 |
| Cn1nccc1-c1ccc(CNc2nccc(-c3ccc4ncccc4c3)c2F)cc1 [Compound A-113] | 16 |
| Cc1cc(-c2ncc(CNc3nccc(-c4ccc5nonc5c4)c3F)cc2F)ccn1 [Compound A-114] | 8 |
| Cc1cc(-c2ncc(CNc3nccc(-c4cncc(F)c4)c3F)cc2F)ccn1 [Compound A-115] | 7 |
| Cc1cc(-c2ncc(CNc3nccc(-c4cncc(Cl)c4)c3F)cc2F)ccn1 [Compound A-116] | 8 |
| Cc1cc(-c2ncc(CNc3nccc(-c4ccc(=O)n(C)c4)c3F)cc2F)ccn1 [Compound A-117] | 2 |

| SMILES | IC50 [nM] |
| --- | --- |
| N#Cc1cnc2cc(CNc3nccc(-c4ccc5ncccc5c4)c3F)ccc2c1 [Compound A-118] | 318 |
| N#Cc1ccc2cc(CNc3nccc(-c4ccc5ncccc5c4)c3F)cnc2c1 [Compound A-119] | 10 |
| N#Cc1ccc(NCCNc2nccc(-c3ccc4ncccc4c3)c2F)nc1 [Compound A-120] | 12 |
| Cc1cc(-c2ncc(CNc3nccc(-c4cc5cccnc5cn4)c3F)cc2C#N)ccn1 [Compound A-121, 5-((3-fluoro-4-(1,7-naphthyridin-6-yl)pyridin-2-ylamino)methyl)-2′-methyl-2,4′-bipyridine-3-carbonitrile] | 0.06 |
| COc1cc(CNc2nccc(-c3cc4cccnc4cn3)c2F)cnc1-c1ccnc(C)c1 [Compound A-122] | 0.13 |
| Cc1cc(-c2ncc(CNc3nccc(-c4ccc5ncnn5c4)c3F)cc2F)ccn1 [Compound A-123] | 0.12 |
| Cc1cc(-c2ncc(CNc3nccc(-c4ccc5nccnc5c4)c3F)cc2F)ccn1 [Compound A-124] | 0.12 |
| COc1cc(CNc2nccc(-c3ccc4ncccc4n3)c2F)cnc1-c1ccnc(C)c1 [Compound A-125] | 0.06 |
| Cc1cc(-c2ncc(CNc3nccc(-c4ccc5ncccc5n4)c3F)cc2C#N)ccn1 [Compound A-126] | 0.04 |
| Cc1cc(-c2ccnc(NCc3cnc(-c4ccnc(C)c4)c(C#N)c3)c2F)ccn1 [Compound A-127] | 0.34 |
| Cc1cc(-c2ncc(CNc3nccc(-c4cnn(C)c4)c3F)cc2C#N)ccn1 [Compound A-128] | 1.8 |
| COc1cncc(-c2ccnc(NCc3cnc(-c4ccnc(C)c4)c(C#N)c3)c2F)c1 [Compound A-129] | 0.4 |
| Cc1cc(-c2ncc(CNc3nccc(-c4cncc(Cl)c4)c3F)cc2C#N)ccn1 [Compound A-130] | 0.11 |
| Cc1cc(-c2ncc(CNc3nccc(-c4cncc(C#N)c4)c3F)cc2C#N)ccn1 [Compound A-131] | 1 |
| Cc1cncc(-c2ccnc(NCc3cnc(-c4ccnc(C)c4)c(C#N)c3)c2F)c1 [Compound A-132] | 0.25 |
| Cc1cc(-c2ccc(CNc3cc(N4CCc5ccccc5C4)ncn3)cc2)ccn1 [Compound A-133] | 34 |
| Cc1cc(-c2ccc(CNc3cc(-c4ccc5ccccc5c4)ncn3)cc2)ccn1 [Compound A-134] | 24 |
| Cc1cc(-c2ccc(CNc3cc(Cl)nc(N4CCc5ccccc5C4)n3)cc2)ccn1 [Compound A-135] | 3000 |
| Cc1cc(-c2ccc(CNc3cc(N4CCCC4)nc(N4CCc5ccccc5C4)n3)cc2)ccn1 [Compound A-136] | 4000 |
| CSc1ncc2c(n1)CCN(c1cc(NCc3ccc(-c4ccnc(C)c4)cc3)ncn1)C2=O [Compound A-137, 6-(6-(4-(2-methylpyridin-4-yl)benzylamino)pyrimidin-4-yl)-2-(methylthio)-7,8-dihydropyrido[4,3-d]pyrimidin-5(6H)-one] | 3000 |
| CNc1ncc2c(n1)CCN(c1cc(NCc3ccc(-c4ccnc(C)c4)cc3)ncn1)C2=O [Compound A-138, 2-(methylamino)-6-(6-(4-(2-methylpyridin-4-yl)benzylamino)pyrimidin-4-yl)-7,8-dihydropyrido[4,3-d]pyrimidin-5(6H)-one] | 712 |
| Cc1cc(-c2ccc(CNc3cc(-c4ccc5ccccc5c4)nc(C)n3)cc2)ccn1 [Compound A-139] | 3000 |
| CSc1nc(NCc2ccc(-c3ccnc(C)c3)cc2)cc(-c2ccc3ccccc3c2)n1 [Compound A-140] | 3000 |
